The record followed here is paper PMC5554220, “A Novel Aldosterone Antagonist Limits Renal Injury in 5/6 Nephrectomy” (Scientific Reports, 2017).

This assay addresses T1, human mineralocorticoid receptor (hMR) (Homo sapiens, UniProt P08235).
T1 construct: made in house; host or cells: Sf9 insect cells (baculovirus)
T1 sequence (P08235 1-984): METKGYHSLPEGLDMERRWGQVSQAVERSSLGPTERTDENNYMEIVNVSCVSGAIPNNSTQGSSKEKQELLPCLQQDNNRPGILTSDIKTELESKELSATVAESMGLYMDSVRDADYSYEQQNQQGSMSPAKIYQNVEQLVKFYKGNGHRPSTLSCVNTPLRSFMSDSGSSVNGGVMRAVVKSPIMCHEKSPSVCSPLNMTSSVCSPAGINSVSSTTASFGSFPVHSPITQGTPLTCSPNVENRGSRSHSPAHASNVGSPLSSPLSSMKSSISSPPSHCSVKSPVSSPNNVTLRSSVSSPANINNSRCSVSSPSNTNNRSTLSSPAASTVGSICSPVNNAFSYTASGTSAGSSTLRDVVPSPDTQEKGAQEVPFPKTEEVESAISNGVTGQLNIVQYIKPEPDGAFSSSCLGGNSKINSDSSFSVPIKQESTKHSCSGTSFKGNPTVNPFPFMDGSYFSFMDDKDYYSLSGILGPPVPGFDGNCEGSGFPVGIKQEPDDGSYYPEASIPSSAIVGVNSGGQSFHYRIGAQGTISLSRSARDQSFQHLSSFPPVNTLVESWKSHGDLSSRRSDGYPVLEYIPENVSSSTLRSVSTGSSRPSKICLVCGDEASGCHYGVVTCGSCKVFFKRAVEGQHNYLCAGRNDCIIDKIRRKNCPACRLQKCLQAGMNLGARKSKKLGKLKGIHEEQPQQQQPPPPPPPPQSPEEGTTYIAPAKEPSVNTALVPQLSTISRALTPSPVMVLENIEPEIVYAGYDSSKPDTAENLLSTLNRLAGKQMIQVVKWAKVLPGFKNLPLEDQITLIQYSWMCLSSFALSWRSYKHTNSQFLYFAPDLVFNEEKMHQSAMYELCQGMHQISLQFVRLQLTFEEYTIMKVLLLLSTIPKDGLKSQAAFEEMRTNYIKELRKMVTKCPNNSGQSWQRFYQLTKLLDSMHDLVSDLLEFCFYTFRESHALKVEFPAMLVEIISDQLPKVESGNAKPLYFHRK
Briefly: Radioligand binding, [3H]aldosterone, hMR Sf9 lysate, vacuum filtration. As for the experimental part: Full-length human mineralocorticoid receptor (hMR) to be used in radioligand binding was isolated from a human kidney cDNA library (Clontech, Palo Alto, CA). […] The hMR, hPR, and hAR cDNAs were subcloned in the eukaryotic expression vector pcDNA3. Methods for the expression of functionally active hMR, hAR and hPR utilizing the baculovirus expression system were described previously, [31].
Affinity of ligands to the soluble receptor was determined using vacuum filtration methods, preparing soluble receptors in 96-well Falcon polystyrene plates (BD Biosciences, Bedford, MA) in a total volume of 250 μl. […] Binding studies for ligands for hPR and hAR were determined using [1,2,6,7-3H(N)] […] Specific binding of 3H-progesterone for hPR and 3H-mibolerone for hAR was determined in the presence and absence of 1 μM mifepristone. Inhibition constants (Ki), were determined either from the Cheng-Prusoff equation[32], or directly using non-linear regression curve fitting to a three-parameter one-site competitive equation. […] Protein was measured using colorimetric detection and quantification of bicinchoninic acid (BCA Protein Assay, Pierce, Rockford, IL). […] Concentration response curves were analyzed statistically using a four-parameter logistic equation (Hill equation for sigmoid curves). […]

Usually Ki stands for a dissociation constant, usually derived from enzyme kinetics or from competition with a known ligand. Take `O=c1[nH]c2ccc(/C=C3\c4ccc(F)cc4COc4cc(F)ccc43)cc2[nH]1` [Ly]: the Ki (hMR expressed in Sf9, [3H]aldosterone 0.5 nM, read-out: Mean Ki ± SEM hMR) turned out to be 1.6 ± 0.3 nM. Also, under “hMR, 124/1.6”, the “Eple/Ly Ki ratio” value is given as 77.5.
